# Activity calls are given as the source filed them.
# How the values were obtained:
# [1] = biological target: Acyl-homoserine lactone acylase PvdQ (Pseudomonas aeruginosa (strain LESB58), UniProt Q9I194); assay: P. aeruginosa PvdQ acylase inhibitors, dose response, biochemical, fluorescence, plate reader and imaging, cherry-picks (AID 493231)
# [2] = biological target: T1, Estrogen receptor (Homo sapiens, UniProt P03372); assay: potentiators of ERα–SRC-1 coactivator binding, dose response, biochemical, TR-FRET, ERα LBD (AID 737)
# T1 sequence (P03372 whole entry): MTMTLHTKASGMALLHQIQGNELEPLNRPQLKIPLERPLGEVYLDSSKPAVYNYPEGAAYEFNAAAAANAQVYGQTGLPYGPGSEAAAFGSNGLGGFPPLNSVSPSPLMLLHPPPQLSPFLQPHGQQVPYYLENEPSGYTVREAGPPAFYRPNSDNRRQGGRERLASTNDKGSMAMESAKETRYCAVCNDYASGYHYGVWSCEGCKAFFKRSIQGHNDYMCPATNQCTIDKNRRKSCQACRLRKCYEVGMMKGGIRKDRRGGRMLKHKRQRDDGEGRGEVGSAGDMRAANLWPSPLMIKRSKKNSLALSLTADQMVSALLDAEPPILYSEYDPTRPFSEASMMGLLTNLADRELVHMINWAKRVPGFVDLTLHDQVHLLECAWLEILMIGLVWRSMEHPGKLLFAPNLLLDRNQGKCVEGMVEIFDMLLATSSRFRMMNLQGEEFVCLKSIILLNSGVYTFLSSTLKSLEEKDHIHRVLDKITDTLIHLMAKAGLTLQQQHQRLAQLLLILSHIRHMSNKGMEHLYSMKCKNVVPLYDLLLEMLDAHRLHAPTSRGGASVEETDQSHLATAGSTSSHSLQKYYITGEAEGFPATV
# [3] = biological target: T2, Replicative DNA helicase DnaB (Mycobacterium tuberculosis, UniProt P9WMR3); assay: DnaB intein splicing inhibitors, dose response, biochemical, cell-free fluorescence (AID 449749); format: functional
# T2 sequence (P9WMR3 whole entry): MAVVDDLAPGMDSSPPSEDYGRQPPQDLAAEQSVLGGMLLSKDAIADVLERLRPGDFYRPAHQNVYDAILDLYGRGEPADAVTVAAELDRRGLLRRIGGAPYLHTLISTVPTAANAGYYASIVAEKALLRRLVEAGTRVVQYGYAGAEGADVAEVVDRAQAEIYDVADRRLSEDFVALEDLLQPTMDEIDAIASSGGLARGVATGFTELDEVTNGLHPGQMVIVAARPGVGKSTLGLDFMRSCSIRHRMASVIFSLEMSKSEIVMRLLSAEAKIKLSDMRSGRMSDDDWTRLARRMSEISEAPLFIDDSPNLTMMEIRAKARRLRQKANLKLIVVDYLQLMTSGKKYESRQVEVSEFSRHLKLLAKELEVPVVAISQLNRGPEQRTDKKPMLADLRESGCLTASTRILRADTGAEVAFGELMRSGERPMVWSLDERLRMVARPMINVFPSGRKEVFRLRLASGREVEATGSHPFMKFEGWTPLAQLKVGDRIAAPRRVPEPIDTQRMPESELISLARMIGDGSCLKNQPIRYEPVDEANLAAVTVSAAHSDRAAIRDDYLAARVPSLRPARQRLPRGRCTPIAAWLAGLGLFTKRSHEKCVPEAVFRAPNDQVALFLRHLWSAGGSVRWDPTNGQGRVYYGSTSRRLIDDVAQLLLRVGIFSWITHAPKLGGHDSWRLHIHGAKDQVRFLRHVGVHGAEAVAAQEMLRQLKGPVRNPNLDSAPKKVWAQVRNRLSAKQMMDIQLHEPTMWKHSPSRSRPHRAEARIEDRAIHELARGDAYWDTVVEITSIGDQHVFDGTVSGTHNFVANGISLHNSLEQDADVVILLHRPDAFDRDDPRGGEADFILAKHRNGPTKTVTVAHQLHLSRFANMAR
# [4] = biological target: T3, Protein RecA (Mycobacterium tuberculosis, UniProt P9WHJ3); assay: Fluorescence Cell-Free Homogeneous Dose Retest to Identify Inhibitors of RecA-Intein Splicing Activity. [Related pubchem assays (depositor defined):AID2097, AID2223, AID489010, AID492950]; format: functional
# T3 sequence (P9WHJ3 whole entry): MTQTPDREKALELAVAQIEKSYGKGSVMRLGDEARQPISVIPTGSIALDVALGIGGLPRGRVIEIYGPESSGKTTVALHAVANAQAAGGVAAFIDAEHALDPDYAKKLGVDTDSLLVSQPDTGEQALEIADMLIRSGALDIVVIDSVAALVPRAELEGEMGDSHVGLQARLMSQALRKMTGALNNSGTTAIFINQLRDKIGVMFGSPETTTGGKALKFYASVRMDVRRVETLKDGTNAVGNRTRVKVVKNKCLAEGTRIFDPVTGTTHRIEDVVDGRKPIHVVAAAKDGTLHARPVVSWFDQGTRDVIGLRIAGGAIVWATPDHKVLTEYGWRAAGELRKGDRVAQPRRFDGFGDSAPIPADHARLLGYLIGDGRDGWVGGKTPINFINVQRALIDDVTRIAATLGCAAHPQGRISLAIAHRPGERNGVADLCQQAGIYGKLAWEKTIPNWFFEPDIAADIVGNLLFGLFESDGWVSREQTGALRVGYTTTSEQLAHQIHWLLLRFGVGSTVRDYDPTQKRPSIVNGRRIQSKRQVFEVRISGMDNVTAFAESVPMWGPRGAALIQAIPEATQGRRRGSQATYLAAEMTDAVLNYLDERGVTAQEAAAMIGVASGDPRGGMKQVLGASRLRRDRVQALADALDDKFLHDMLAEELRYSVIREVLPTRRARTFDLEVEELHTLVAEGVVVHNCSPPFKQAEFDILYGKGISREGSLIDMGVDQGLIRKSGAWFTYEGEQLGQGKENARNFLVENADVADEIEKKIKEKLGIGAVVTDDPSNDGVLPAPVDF
# [5] = biological target: T4, Leucine aminopeptidase (Plasmodium falciparum 3D7, UniProt Q8IL11); assay: P. falciparum M17LAP inhibitors, primary screen, biochemical, fluorogenic H-Leu-NHMec substrate, 1536-well (AID 1619); format: functional
# T4 sequence (Q8IL11 whole entry): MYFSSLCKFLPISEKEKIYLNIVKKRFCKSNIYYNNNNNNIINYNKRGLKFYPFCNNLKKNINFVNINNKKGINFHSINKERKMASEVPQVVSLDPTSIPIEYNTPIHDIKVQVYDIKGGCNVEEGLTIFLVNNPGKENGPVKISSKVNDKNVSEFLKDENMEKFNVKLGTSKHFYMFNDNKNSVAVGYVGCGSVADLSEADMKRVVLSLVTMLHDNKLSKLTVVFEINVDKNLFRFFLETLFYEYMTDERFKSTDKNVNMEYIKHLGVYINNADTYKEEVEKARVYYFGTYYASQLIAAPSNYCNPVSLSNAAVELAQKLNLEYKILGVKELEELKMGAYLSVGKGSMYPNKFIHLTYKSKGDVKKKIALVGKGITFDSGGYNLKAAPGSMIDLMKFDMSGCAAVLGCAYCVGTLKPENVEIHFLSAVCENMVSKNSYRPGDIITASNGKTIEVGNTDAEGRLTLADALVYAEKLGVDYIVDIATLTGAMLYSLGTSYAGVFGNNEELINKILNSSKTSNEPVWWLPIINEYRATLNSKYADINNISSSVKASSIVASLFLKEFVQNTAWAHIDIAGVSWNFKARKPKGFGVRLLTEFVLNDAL
# [6] = inhibitors of Bluetongue virus cytopathic effect, confirmation, arbovirus, BSR cells (AID 1250); format: functional;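 also: protection from viral cytopathic effect measured as cell viability by ATP luminescence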
# [7] = biological target: T5, Interleukin-8 (Homo sapiens, UniProt P10145); assay: Dose Response confirmation of uHTS small molecule hits for cystic fibrosis induced NFkb Inhibitors in a TNFa-induced IL8 counterscreen.; format: functional; conditions: read-out: IC50_Mean
# T5 sequence (P10145 whole entry): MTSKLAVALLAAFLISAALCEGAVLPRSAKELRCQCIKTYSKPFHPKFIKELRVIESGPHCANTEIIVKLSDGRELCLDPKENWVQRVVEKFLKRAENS
# [8] = biological target: T5, Interleukin-8; assay: Dose Response confirmation of uHTS small molecule hits for cystic fibrosis induced NFkb Inhibitors in a PAF-induced IL8 counterscreen.; format: functional; conditions: read-out: IC50_Mean
# [9] = biological target: Protein Rev (Human immunodeficiency virus type 1 group M subtype B (isolate HXB2)(HIV-1), UniProt P04618); assay: inhibitors of Rev binding to RRE RNA, dose response, biochemical, fluorescence polarization, HIV-1 (AID 434976); design: species or system Human immunodeficiency virus 1
# Sequence of Protein Rev (P04618 whole entry): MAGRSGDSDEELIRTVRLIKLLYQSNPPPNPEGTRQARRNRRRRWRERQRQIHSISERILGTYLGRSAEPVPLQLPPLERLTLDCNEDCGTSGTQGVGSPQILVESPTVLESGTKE
# [10] = biological target: Female germline-specific tumor suppressor gld-1 (Caenorhabditis elegans, UniProt Q17339); assay: inhibitors of GLD-1 binding to TGE RNA, dose response, biochemical, fluorescence polarization, C. elegans (AID 2802);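 also: fluorescence polarization of labeled TGE RNA bound by purified gld-1 protein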
# Sequence of Female germline-specific tumor suppressor gld-1 (Q17339 whole entry): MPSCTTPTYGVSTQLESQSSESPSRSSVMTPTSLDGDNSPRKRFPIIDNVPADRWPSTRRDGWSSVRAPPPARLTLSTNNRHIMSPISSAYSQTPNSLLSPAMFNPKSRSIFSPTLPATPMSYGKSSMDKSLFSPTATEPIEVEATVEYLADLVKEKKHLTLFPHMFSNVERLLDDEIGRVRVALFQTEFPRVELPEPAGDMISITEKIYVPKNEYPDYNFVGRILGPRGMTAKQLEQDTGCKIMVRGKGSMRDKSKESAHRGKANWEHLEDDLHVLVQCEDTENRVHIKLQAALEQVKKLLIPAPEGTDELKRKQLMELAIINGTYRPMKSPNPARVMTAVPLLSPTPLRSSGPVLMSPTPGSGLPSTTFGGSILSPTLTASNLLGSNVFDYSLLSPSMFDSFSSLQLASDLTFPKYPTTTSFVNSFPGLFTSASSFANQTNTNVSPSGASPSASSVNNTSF
# [11] = biological target: Cystic fibrosis transmembrane conductance regulator/Golgi-associated PDZ and coiled-coil motif-containing protein (Homo sapiens, UniProt P13569+Q9HD26); assay: CAL PDZ peptide-binding inhibitors, dose response, biochemical, fluorescence polarization, Cerulean-tagged CAL PDZ, cherry-picks (AID 504773)
# Sequence of Cystic fibrosis transmembrane conductance regulator/Golgi-associated PDZ and coiled-coil motif-containing protein (P13569 whole entry, other chains not shown): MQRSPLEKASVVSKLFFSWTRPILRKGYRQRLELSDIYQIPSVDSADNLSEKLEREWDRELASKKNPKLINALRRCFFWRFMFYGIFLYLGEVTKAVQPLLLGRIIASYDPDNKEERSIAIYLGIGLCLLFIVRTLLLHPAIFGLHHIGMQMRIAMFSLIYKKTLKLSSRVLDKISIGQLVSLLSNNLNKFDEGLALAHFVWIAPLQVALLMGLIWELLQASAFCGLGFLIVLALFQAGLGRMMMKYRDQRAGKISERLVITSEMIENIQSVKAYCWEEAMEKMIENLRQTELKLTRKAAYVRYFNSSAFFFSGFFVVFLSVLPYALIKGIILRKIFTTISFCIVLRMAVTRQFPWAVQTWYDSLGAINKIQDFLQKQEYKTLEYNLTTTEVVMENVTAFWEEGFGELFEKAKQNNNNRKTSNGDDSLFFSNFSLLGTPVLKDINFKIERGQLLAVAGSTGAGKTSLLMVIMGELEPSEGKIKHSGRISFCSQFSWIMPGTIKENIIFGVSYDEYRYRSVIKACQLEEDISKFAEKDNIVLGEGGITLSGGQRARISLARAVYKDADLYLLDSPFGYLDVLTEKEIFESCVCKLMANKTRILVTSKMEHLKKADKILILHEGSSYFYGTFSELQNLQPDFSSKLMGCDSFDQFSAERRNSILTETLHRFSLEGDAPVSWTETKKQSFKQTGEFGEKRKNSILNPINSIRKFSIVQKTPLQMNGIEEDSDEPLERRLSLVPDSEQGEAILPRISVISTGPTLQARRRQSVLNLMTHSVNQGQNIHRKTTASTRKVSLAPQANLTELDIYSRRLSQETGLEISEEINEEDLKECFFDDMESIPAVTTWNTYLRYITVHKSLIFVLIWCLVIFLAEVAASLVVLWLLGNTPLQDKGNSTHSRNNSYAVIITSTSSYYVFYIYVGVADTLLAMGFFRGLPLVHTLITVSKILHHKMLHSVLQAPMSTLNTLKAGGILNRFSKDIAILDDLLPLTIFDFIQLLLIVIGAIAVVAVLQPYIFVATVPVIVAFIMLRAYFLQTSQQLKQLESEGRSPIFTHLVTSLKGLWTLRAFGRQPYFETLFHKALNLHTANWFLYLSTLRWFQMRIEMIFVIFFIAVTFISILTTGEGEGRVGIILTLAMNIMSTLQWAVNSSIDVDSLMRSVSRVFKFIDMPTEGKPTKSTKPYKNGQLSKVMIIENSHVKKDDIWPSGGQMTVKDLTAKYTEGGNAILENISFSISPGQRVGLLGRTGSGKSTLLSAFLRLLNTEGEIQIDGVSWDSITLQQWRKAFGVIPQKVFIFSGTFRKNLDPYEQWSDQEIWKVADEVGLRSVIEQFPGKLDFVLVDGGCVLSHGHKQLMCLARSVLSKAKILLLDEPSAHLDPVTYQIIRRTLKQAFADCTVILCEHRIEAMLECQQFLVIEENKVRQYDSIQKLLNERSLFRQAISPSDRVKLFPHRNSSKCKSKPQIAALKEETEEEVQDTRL
# [12] = human group III sPLA2 inhibitors, dose response, biochemical, QFRET, IC50 (AID 743457);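 also: green fluorescence rise as the enzyme cleaves BODIPY PC-A2 in liposomes; potency for inhibition of the enzyme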
# [13] = biological target: Heat shock protein HSP 90-alpha (Homo sapiens, UniProt P07900); format: functional, organism-based
# [14] = biological target: Nonstructural protein 1 (Influenza A virus, UniProt Q194T2); format: functional, Influenza A virus (A/California/07/2009(H1N1))
# Sequence of Nonstructural protein 1 (Q194T2 whole entry): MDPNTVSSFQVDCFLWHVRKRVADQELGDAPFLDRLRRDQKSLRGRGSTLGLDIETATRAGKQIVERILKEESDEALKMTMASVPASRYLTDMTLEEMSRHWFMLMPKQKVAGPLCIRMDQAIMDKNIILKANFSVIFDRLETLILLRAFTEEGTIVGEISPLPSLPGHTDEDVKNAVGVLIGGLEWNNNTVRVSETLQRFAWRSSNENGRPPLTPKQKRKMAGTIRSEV
# [15] = biological target: Kallikrein-7 (Homo sapiens, UniProt P49862); assay: Fluorescence Intensity-based biochemical primary high throughput dose response assay to identify activators of kallikrein-7 (K7) zymogen.
# Sequence of Kallikrein-7 (P49862 whole entry): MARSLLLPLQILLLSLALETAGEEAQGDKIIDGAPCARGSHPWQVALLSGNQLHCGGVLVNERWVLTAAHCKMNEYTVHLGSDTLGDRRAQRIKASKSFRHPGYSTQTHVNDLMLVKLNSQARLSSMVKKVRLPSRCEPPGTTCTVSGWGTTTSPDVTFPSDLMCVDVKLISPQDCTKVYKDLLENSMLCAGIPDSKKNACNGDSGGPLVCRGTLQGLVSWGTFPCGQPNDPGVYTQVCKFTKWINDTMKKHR
# [16] = biological target: Melanin-concentrating hormone receptor 1 (Homo sapiens, UniProt Q99705); assay: Late-stage fluorescence-based counterscreen for antagonists of the G-protein coupled receptor 7 (GPR7): cell-based dose response assay to identify antagonists of the melanin-concentrating hormone receptor 1 (MCHR1). [Related pubchem assays (depositor defined):AID1861, AID1880, AID1952, AID2148, AID2251, AID2257, AID485339]; format: functional;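 also: stimulated with 30 nM MCH peptide agonist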
# Sequence of Melanin-concentrating hormone receptor 1 (Q99705 whole entry): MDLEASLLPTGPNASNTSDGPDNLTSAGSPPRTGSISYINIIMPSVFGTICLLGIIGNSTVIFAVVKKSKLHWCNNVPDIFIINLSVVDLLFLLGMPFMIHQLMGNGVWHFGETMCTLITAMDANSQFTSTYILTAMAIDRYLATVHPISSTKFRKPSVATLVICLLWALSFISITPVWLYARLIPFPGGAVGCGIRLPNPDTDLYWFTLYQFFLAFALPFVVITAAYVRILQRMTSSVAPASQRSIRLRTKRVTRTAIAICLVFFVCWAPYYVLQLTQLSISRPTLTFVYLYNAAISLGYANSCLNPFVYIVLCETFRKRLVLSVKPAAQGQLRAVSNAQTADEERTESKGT
# [17] = biological target: T6, Serine/threonine-protein phosphatase (Candida dubliniensis (strain CD36 / CBS 7987 / NCPF 3949 / NRRLY-17841) (Yeast), UniProt B9W6M3); assay: calcineurin pathway inhibitors in yeast reporter, dose response, S. cerevisiae, CDRE-lacZ, luminescence, secondary (AID 2388); format: functional, cell-based;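 also: yeast reporter cells carrying a calcineurin-responsive lacZ construct stimulated with calcium chloride; luminescent beta-galactosidase reporter signal in whole cells rather than isolated phosphatase activity; potency for inhibition where a drop in reporter signal means calcineurin blockade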
# T6 sequence (B9W6M3 whole entry): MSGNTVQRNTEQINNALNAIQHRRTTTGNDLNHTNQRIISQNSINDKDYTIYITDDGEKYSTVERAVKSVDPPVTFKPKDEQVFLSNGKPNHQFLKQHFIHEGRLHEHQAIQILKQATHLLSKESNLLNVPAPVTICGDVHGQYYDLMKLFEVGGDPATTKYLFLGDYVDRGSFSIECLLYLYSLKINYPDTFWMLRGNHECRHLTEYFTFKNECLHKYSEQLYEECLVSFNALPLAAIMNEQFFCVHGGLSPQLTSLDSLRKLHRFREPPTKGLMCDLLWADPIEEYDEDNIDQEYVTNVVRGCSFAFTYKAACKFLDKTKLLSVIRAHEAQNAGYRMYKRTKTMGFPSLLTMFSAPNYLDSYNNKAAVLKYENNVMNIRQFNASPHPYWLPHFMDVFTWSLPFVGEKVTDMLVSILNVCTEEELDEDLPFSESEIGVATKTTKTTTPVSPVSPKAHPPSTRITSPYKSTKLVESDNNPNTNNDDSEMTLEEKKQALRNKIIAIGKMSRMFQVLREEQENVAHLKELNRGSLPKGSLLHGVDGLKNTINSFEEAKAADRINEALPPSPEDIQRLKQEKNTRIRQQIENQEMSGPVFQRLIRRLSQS
# [18] = C. albicans growth with fluconazole, confirmation, fluorescence, retest (AID 2467); format: functional, cell-based
# [19] = biological target: ATP-dependent molecular chaperone HSP82 (Candida albicans (strain WO-1) (Yeast), UniProt C4YTQ8); assay: loss of DOC-induced GRE-beta-galactosidase reporter signal, dose response, Hsp90 inhibitor project, S. cerevisiae, luminescence (AID 2400); format: functional, cell-based;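 also: beta-galactosidase luminescence from glucocorticoid response element reporter as proxy for Hsp90 function; inhibitor potency where signal loss means Hsp90 inhibition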
# Sequence of ATP-dependent molecular chaperone HSP82 (C4YTQ8 whole entry): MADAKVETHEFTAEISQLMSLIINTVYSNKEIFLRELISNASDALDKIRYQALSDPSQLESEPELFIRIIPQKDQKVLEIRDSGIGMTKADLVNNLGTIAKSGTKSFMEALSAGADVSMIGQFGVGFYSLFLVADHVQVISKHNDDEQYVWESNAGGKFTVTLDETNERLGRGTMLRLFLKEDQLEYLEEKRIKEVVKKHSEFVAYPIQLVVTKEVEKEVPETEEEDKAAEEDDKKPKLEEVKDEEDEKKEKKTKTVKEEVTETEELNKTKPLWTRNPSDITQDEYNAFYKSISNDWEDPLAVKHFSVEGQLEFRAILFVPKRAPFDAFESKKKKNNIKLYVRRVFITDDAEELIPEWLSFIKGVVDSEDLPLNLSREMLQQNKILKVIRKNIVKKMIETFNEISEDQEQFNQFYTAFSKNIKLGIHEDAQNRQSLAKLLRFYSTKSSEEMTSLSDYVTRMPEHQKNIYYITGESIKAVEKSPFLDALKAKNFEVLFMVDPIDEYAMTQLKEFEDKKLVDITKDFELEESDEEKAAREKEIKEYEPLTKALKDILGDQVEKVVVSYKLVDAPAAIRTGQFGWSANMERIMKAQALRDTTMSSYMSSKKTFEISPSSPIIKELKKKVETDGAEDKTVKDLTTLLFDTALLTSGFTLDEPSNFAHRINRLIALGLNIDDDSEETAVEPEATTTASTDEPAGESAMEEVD
# [20] = NIH-3T3 fibroblast cytotoxicity, dose response, cytotoxicity control, cell-based, fluorescence, Alamar Blue, secondary assay (AID 2327); format: functional;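 also: NIH-3T3 mouse fibroblasts cultured with fluconazole at 8 µg/mL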
# Sequence of Acyl-homoserine lactone acylase PvdQ (Q9I194 24-193 limits assumed): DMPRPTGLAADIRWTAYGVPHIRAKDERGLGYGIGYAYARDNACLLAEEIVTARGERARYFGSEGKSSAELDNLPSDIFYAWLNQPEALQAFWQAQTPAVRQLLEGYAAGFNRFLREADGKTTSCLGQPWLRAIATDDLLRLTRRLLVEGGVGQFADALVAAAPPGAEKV
# Sequence of Acyl-homoserine lactone acylase PvdQ (Q9I194 217-762 limits assumed): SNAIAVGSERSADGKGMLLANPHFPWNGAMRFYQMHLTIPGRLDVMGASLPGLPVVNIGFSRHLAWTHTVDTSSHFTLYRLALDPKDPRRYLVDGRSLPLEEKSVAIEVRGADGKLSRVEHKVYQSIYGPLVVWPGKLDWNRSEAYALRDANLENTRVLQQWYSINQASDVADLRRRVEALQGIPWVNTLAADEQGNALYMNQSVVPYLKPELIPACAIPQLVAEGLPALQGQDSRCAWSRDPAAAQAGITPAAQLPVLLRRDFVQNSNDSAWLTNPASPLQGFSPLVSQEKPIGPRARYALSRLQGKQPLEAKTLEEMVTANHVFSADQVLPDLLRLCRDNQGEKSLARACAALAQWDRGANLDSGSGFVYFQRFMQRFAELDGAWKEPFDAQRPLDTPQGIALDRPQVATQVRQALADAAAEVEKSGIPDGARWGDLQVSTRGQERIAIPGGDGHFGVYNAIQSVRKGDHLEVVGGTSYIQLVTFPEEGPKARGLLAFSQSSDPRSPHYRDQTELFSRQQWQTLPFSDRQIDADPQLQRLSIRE
smiles,measurement,setting,value
Cc1cc(NC(=O)c2c(F)c(F)c(F)c(F)c2F)no1,AC50,[1],1.24 µM (active)
CCOc1ccc(CC2SC(Nc3ccccn3)=NC2=O)cc1 (stereo unspecified),EC50,[2],25.1 µM (active)
CCOc1ccccc1C1C(C#N)=C(N)Nc2onc(-c3ccccc3)c21 (stereo unspecified),EC50,[2],17.5 µM (active)
same,AC50,[3],2.47 µM (active)
same,EC50,[4],1.39 µM (active)
same,IC50,[5],52.7 µM (active)
O=C(Nc1sc2c(c1C(=O)O)CCCCC2)c1cccs1,IC50,[6],27.6 µM (active)
CN(c1ncnc(N)c1[N+](=O)[O-])C1CCCCC1,IC50,[7],46.8 µM (inactive)
same,AC50,[1],15.3 µM (active)
same,IC50,[8],16.9 µM (inactive)
CCOC(=O)c1cc2c(ccn2C)n1CC(=O)N1CCN(c2cccc(C(F)(F)F)c2)CC1,IC50,[9],> 75.4 µM (not active)
same,IC50,[10],> 6.63 µM (active)
CN(C)c1ccc(/C=c2\c3ccccc3n3c2cc(-c2ccccc2)[n+]3C)cc1,AC50,[11],94 µM (active)
same,IC50,[12],66.8 µM (inactive)
same,AC50,[13],4.19 µM (active)
same,IC50,[14],6.8 µM (active)
CC(=O)N1CCN(C2=Nc3cccc4cccc2c34)CC1,IC50,[9],15.8 µM (not active)
same,IC50,[10],7.57 µM (active)
same,EC50,[15],36.7 µM (inactive)
CC(C)c1ccc(-n2ncc(Cl)c(Oc3ccc(CO)cc3)c2=O)cc1,IC50,[16],3.7 µM (active)
Cc1oc2ccc(OC(=O)N(C)C)cc2c1C(=O)OC(C)C,EC50,[17],> 180 µM (inactive)
same,EC50,[18],1.34 µM (active)
same,EC50,[19],> 160 µM (inactive)
same,IC50,[6],35.1 µM (active)
same,EC50,[20],137 µM (inconclusive)
C=Cc1cnn(-c2ccc(C(C)C)cc2)c(=O)c1Oc1ccc(OC)cc1,IC50,[16],3.9 µM (active)

# From ChEMBL document CHEMBL1201862, “PubChem BioAssay data set” (2004)
